Legend:
Format in all cases: biochemical
Conditions in all cases: ADP-Glo SIK kinase assay
[1] = target: T1, SIK2 (Homo sapiens, UniProt Q9H0K1); experiment: ADP-Glo kinase assay, SIK2
T1 construct: purchased ThermoFisher Scientific PV4792
Procedure, shortened: (§1)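 Enzyme–substrate mix was started with ATP and incubated 120 min at RT. ADP formed was quantified by ADP-Glo: 40 min ATP depletion, then 30 min detection reagent converting ADP to ATP for luciferase luminescence, which rises with kinase activity. Controls: 1% DMSO and 10 μM staurosporine (final).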

[2] = target: T2, SIK3 (Homo sapiens, UniProt Q9Y2K2); experiment: ADP-Glo kinase assay, SIK3
T2 construct: purchased SignalChem S12-11G-100
Procedure, shortened: as §1

[3] = target: T3, SIK1 (Homo sapiens, UniProt P57059); experiment: ADP-Glo kinase assay, SIK1
T3 construct: purchased Carna Biosciences 02-131
Procedure, shortened: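 ADP-Glo, RT throughout. Enz/substrate + ATP, 120 min; ADP-Glo reagent 40 min (ATP depletion); detection reagent 30 min; luminescence read. Neg ctrl 1% DMSO, pos ctrl 10 μM staurosporine, final concs.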

T2 sequence (Q9Y2K2 whole entry): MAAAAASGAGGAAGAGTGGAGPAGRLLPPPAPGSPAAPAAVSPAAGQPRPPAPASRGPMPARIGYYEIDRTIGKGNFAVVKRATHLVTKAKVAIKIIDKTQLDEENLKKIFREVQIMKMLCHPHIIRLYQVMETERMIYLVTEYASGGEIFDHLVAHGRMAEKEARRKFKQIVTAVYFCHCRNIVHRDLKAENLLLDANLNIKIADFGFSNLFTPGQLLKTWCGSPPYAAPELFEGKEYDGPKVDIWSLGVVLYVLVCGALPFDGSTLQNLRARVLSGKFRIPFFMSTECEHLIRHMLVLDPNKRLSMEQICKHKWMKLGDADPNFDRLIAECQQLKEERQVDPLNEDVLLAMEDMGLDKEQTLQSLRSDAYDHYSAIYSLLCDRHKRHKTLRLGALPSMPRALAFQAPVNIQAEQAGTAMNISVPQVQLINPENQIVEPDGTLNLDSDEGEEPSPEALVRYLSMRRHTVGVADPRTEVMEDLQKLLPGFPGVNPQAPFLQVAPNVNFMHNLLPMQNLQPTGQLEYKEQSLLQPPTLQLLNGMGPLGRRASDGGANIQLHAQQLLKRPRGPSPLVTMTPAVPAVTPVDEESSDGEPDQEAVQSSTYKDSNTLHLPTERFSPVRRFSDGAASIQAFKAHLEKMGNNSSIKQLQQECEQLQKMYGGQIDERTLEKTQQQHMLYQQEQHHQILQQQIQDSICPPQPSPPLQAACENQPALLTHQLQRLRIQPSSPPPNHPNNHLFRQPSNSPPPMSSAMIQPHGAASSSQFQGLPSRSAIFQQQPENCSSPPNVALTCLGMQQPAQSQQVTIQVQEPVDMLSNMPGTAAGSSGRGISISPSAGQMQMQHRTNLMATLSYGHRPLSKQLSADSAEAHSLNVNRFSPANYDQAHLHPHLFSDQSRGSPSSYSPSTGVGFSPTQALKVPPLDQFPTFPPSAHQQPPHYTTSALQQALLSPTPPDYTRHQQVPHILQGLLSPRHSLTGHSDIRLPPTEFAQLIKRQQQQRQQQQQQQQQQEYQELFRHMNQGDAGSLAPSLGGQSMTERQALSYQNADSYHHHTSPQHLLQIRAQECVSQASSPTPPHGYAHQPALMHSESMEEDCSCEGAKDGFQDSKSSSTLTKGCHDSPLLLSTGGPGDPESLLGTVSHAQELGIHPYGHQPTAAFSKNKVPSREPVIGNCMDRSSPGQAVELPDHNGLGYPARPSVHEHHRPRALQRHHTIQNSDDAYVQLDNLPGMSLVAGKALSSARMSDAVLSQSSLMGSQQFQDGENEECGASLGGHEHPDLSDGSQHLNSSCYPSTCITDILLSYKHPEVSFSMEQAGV
T3 sequence (P57059 whole entry): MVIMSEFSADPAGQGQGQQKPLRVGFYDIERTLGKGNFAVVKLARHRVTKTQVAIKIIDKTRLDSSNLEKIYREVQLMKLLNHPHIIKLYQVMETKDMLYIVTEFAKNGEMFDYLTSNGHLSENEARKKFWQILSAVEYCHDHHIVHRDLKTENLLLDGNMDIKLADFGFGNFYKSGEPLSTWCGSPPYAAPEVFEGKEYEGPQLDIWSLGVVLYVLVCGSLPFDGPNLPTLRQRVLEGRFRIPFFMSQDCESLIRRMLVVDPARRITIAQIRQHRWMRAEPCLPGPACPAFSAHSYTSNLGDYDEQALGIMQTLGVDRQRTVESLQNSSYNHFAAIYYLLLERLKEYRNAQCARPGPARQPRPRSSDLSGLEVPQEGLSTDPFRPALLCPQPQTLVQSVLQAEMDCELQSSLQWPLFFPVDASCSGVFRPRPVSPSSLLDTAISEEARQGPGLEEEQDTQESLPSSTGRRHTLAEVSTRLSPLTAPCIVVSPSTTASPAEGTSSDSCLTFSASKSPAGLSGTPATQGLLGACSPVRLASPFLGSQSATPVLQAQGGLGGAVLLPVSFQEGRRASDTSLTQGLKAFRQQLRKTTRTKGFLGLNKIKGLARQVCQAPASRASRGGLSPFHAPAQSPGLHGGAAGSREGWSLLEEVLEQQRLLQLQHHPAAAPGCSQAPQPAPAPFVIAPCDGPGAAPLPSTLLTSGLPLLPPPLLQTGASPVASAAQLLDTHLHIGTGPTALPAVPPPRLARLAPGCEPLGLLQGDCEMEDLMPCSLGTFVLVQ
T1 sequence (Q9H0K1 whole entry): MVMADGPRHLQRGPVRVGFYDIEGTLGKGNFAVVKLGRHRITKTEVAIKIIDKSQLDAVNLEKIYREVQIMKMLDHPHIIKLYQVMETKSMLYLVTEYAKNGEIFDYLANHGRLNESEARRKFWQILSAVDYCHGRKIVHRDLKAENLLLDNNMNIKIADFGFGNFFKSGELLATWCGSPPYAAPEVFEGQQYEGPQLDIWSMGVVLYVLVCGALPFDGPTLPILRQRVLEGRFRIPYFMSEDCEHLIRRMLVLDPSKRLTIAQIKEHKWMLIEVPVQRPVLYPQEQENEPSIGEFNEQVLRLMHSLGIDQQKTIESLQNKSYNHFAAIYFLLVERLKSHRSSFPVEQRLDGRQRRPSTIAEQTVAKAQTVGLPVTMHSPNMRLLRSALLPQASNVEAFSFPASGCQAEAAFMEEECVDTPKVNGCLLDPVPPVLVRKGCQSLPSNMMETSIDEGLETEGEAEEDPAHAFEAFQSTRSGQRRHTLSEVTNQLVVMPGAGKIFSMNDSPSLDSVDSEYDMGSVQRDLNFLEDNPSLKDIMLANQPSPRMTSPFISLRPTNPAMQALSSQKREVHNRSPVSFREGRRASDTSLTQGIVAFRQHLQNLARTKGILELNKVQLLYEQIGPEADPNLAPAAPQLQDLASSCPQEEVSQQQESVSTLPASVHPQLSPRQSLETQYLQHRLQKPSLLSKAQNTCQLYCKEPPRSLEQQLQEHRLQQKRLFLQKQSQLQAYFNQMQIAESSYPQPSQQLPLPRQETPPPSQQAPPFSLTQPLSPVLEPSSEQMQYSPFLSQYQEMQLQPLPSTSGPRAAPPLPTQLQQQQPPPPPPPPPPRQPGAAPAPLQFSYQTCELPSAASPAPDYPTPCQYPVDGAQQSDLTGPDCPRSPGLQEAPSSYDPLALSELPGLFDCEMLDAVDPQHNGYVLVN

Row | IC50 [1] [nM] | IC50 [2] [nM] | IC50 [3] [nM] | Structure (SMILES)
1 | 0.01 to 10 | 0.01 to 10 | 10 to 100 | COc1cc(-c2cnc3cc(OCC4CCN4C(=O)OC(C)(C)C)ccn23)cc(OC(F)F)c1C(=O)NC1CC1 (stereo not drawn) [compound 87, tert-butyl 2-[[3-[4-(cyclopropylcarbamoyl)-3-(difluoromethoxy)-5-methoxy-phenyl]imidazo[1,2-a]pyridin-7-yl]oxymethyl]azetidine-1-carboxylate]
2 | 0.01 to 10 | 0.01 to 10 | 10 to 100 | COc1cc(-c2cnc3cc(OCC4(N)CC4)ccn23)cc(OC(F)F)c1C(=O)NC1CC1 [compound 171, 4-[7-[(1-aminocyclopropyl)methoxy]imidazo[1,2-a]pyridin-3-yl]-N-cyclopropyl-2-(difluoromethoxy)-6-methoxy-benzamide]
3 | 10 to 100 | 0.01 to 10 | 10 to 100 | COc1cc(-c2cnc3cc(OCC4CCCCN4CC(F)(F)F)ccn23)cc(OC(F)F)c1C(=O)NC1CC1 (stereo not drawn) [Cpd 182, N-cyclopropyl-2-(difluoromethoxy)-6-methoxy-4-[7-[[1-(2,2,2-trifluoroethyl)-2-piperidyl]methoxy]imidazo[1,2-a]pyridin-3-yl]benzamide]
4 | 0.01 to 10 | 0.01 to 10 | 10 to 100 | COc1cc(-c2cnc3cc(OCC4(N)COC4)ccn23)cc(OC(F)F)c1C(=O)NC1CC1 [compound 170, 4-[7-[(3-aminooxetan-3-yl)methoxy]imidazo[1,2-a]pyridin-3-yl]-N-cyclopropyl-2-(difluoromethoxy)-6-methoxy-benzamide]
5 | 0.01 to 10 | 0.01 to 10 | 10 to 100 | COc1cc(-c2cnc3cc(OC[C@@H]4CCCN(C5COC5)C4)ccn23)cc(OC(F)F)c1C(=O)NC1CC1 [compound 339, N-cyclopropyl-2-(difluoromethoxy)-6-methoxy-4-[7-[[(3R)-1-(oxetan-3-yl)-3-piperidyl]methoxy]imidazo[1,2-a]pyridin-3-yl]benzamide]
6 | 10 to 100 | 0.01 to 10 | 100 to 500 | CCC(COc1ccn2c(-c3cc(OC)c(C(=O)NC4CC4)c(OC(F)F)c3)cnc2c1)N(C)C (stereo not drawn) [compound 203]
7 | 0.01 to 10 | 0.01 to 10 | 10 to 100 | COc1cc(-c2cnc3cc(OCCCN4CCCC(C#N)C4)ccn23)cc(OC(F)F)c1C(=O)NC1CC1 (stereo not drawn) [compound 346, 4-[7-[3-(3-cyano-1-piperidyl)propoxy]imidazo [1,2-a]pyridin-3-yl]-N-cyclopropyl-2-(difluoromethoxy)-6-methoxy-benzamide]

Second part, the molecule before the results:

Row | Structure (SMILES) | IC50 [1] [nM] | IC50 [2] [nM] | IC50 [3] [nM]
8 | COc1cc(-c2cnc3cc(OC[C@H]4CCNC4)ccn23)cc(OC(F)F)c1C(=O)NC1CC1 [Cpd 314, N-cyclopropyl-2-(difluoromethoxy)-6-methoxy-4-[7-[[(3S)-pyrrolidin-3-yl]methoxy]imidazo[1,2-a]pyridin-3-yl]benzamide] | 0.01 to 10 | 0.01 to 10 | 10 to 100
9 | COc1cc(-c2cnc3cc(OCCCN4CCn5cccc5C4)ccn23)cc(OC(F)F)c1C(=O)NC1CC1 [compound 310, N-cyclopropyl-2-(difluoromethoxy)-4-[7-[3-(3,4-dihydro-1H-pyrrolo[1,2-a]pyrazin-2-yl)propoxy]imidazo[1,2-a]pyridin-3-yl]-6-methoxy-benzamide] | 0.01 to 10 | 0.01 to 10 | 10 to 100
10 | COc1cc(-c2cnc3cc(OC4(C#N)CCCC4)ccn23)cc(OC(F)F)c1C(=O)NC1CC1 [Cpd 255, 4-[7-(1-cyanocyclopentoxy)imidazo[1,2-a]pyridin-3-yl]-N-cyclopropyl-2-(difluoromethoxy)-6-methoxy-benzamide] | 100 to 500 | 10 to 100 | > 500
11 | COc1cc(-c2cnc3cc(OCCN4CCCC(F)C4)ccn23)cc(OC(F)F)c1C(=O)NC1CC1 (stereo not drawn) [compound 212, N-cyclopropyl-2-(difluoromethoxy)-4-[7-[2-(3-fluoro-1-piperidyl)ethoxy]imidazo[1,2-a]pyridin-3-yl]-6-methoxy-benzamide] | 0.01 to 10 | 0.01 to 10 | 10 to 100
12 | COc1cc(-c2cnc3cc(OCC(=O)N(C)C)ccn23)cc(OC(F)F)c1C(=O)NC1CC1 [compound 100, N-cyclopropyl-2-(difluoromethoxy)-4-[7-[2-(dimethylamino)-2-oxo-ethoxy]imidazo[1,2-a]pyridin-3-yl]-6-methoxy-benzamide] | 10 to 100 | 10 to 100 | 100 to 500
13 | COc1cc(-c2cnc3cc(OC[C@H]4CCCN4CC(F)F)ccn23)cc(OC(F)F)c1C(=O)NC1CC1 [compound 80, N-cyclopropyl-4-[7-[[(2R)-1-(2,2-difluoroethyl)pyrrolidin-2-yl]methoxy]imidazo[1,2-a]pyridin-3-yl]-2-(difluoromethoxy)-6-methoxy-benzamide] | 0.01 to 10 | 0.01 to 10 | 10 to 100
14 | COc1cc(-c2cnc3cc(OC(C)CN4CCOCC4)ccn23)cc(OC(F)F)c1C(=O)NC1CC1 (stereo not drawn) [compound 12, N-cyclopropyl-2-(difluoromethoxy)-6-methoxy-4-[7-(1-methyl-2-morpholino-ethoxy)imidazo[1,2-a]pyridin-3-yl]benzamide] | 100 to 500 | 10 to 100 | > 500
15 | CN(C)CCOc1ccn2c(-c3cc(F)c(C(=O)NCC(F)(F)F)c(OC(F)F)c3)cnc2c1 [compound 155, 2-(difluoromethoxy)-4-[7-[2-(dimethylamino)ethoxy]imidazo[1,2-a]pyridin-3-yl]-6-fluoro-N-(2,2,2-trifluoroethyl)benzamide] | 10 to 100 | 10 to 100 | > 500
16 | COc1cc(-c2cnc3cc(OC4CCC4)ccn23)cc(OC(F)F)c1C(=O)NC1CC1 [compound 151, 4-[7-(cyclobutoxy)imidazo[1,2-a]pyridin-3-yl]-N-cyclopropyl-2-(difluoromethoxy)-6-methoxy-benzamide] | 0.01 to 10 | 0.01 to 10 | 10 to 100
17 | COc1cc(-c2cnc3cc(OCCN4CCC4)ccn23)cc(OC(F)F)c1C(=O)NC1CC1 [compound 112, 4-[7-[2-(azetidin-1-yl)ethoxy]imidazo[1,2-a]pyridin-3-yl]-N-cyclopropyl-2-(difluoromethoxy)-6-methoxy-benzamide] | 0.01 to 10 | 0.01 to 10 | 10 to 100
18 | COc1cc(-c2cnc3cc(OCc4nnc(C5CC5)o4)ccn23)cc(OC(F)F)c1C(=O)NC1CC1 [compound 205, N-cyclopropyl-4-[7-[(5-cyclopropyl-1,3,4-oxadiazol-2-yl)methoxy]imidazo[1,2-a]pyridin-3-yl]-2-(difluoromethoxy)-6-methoxy-benzamide] | 0.01 to 10 | 0.01 to 10 | 0.01 to 10
19 | COc1cc(-c2cnc3cc(OC[C@H]4CCCN(CCO)C4)ccn23)cc(OC(F)F)c1C(=O)NC1CC1 [Cpd 340, N-cyclopropyl-2-(difluoromethoxy)-4-[7-[[(3S)-1-(2-hydroxyethyl)-3-piperidyl]methoxy]imidazo [1,2-a]pyridin-3-yl]-6-methoxy-benzamide] | 0.01 to 10 | 0.01 to 10 | 10 to 100
20 | COc1cc(-c2cnc3cc(OCCN(C)c4ccnnc4)ccn23)cc(OC(F)F)c1C(=O)NC1CC1 [compound 240, N-cyclopropyl-2-(difluoromethoxy)-6-methoxy-4-[7-[2-[methyl(pyridazin-4-yl)amino]ethoxy]imidazo [1,2-a]pyridin-3-yl]benzamide] | 0.01 to 10 | 0.01 to 10 | 0.01 to 10

From patent publication US12264156B2, “Compounds and pharmaceutical compositions thereof for the treatment of diseases” (GALAPAGOS NV, priority 2018, dated 2025)
